pIC50: −log10 of the molar value.
Tests used:
[1] = Mouse Activity and Screen Test Procedure (MAST): inhibition of spontaneous locomotion (actophotometer) and overall dose rating; type: in vivo, mouse (Swiss-Webster, male); settings: IP
From the text: (§1) The compounds of the invention are new chemical substances which are useful as pharmaceutical agents for the treatment of psychoses. The antipsychotic activity of representative compounds of the invention was established by the Mouse Activity and Screen Test Procedure (MAST) described below.
(§2) Nine unfasted Swiss-Webster male mice weighing 20-30 g are equally divided into three groups for each drug dose to be tested. That is, data for each dose level was generated by three separate groups of three mice each.
(§3) A minimum of three dose levels (10, 30, and 100 mg/kg) are tested for each drug. Treatments are administered intraperitoneally one hour prior to testing. All dosages are calculated as parent compound and given in volumes of 10 ml/kg. Compounds are dissolved or suspended in 0.2% Methocel. Control animals are injected with Methocel.
(§4) Testing: A two part testing procedure is started one hour postinjection. First, the screen test (ST) is performed (see Pharmac. Biochem. Behav. 6, 351-353, 1977). Briefly this test consists of placing mice on individual wire screens which are then rotated 180 degrees at the start of a 60 second observation period. The number of mice falling off the inverted screen is recorded.
Immediately following the screen test, the final phase of testing is initiated by placing each group of three mice in one actophotometer (Life Sciences, 22, 1067-1076, 1978). The actophotometer consists of a cylindrical chamber whose center is occupied by another cylinder which contains the illumination for six photocells located on the perimeter of the chamber. Six light-beam interruptions equal one count. Locomotor activity is recorded by computer at ten minute intervals for 60 minutes.
(§5) Data: The data obtained from the screen test are expressed as percent of mice falling off the screen. Data derived from locomotor activity of drug treated mice are compared to the activity of vehicle treated animals and are expressed as percent inhibition of spontaneous locomotion. All percentages reported for inhibition of locomotion (LI) are based upon data accumulated for one hour. Both phases of testing are graded: A=60-100%; C=31-59%; and N=0-30%. An overall dose rating is obtained by the following criteria:
(§6) LAD refers to the lowest dose at which an A rating is achieved. […] Utilizing this procedure, an overall dose rating of A was obtained for the noted compound at the indicated dose. The compounds are identified in the Examples.

[2] = Mouse Activity and Screen Test Procedure (MAST): screen test (mice falling off inverted screen); type: in vivo, mouse (Swiss-Webster, male); settings: PO
adenosine A1 receptor = target: T1, adenosine A1 receptor (Rattus norvegicus, UniProt P25099); assay: Adenosine Receptor Binding--A1 Receptor Affinity (RBA1), [3H]-CHA displacement, rat whole brain membranes; design: species or system rat (Long Evans); settings: 1.0 nM [3H]-CHA, pH 7.7, 25° C., read-out: RBA-1
T1 construct: Whole brain minus cerebellum and brainstem from male Long Evans rats; from tissue; host or cells: rat whole brain minus cerebellum and brainstem, membranes (male Long Evans)
T1 sequence (P25099 1-326): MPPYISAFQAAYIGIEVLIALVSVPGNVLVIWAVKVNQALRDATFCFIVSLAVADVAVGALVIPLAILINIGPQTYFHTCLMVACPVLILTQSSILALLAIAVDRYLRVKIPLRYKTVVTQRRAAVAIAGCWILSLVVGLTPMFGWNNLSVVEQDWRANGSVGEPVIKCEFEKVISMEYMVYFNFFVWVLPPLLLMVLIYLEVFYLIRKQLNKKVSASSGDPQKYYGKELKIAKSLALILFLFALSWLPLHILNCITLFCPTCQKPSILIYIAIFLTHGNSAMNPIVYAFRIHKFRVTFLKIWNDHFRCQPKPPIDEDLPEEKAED
Protocol: Whole brain minus cerebellum and brainstem from male Long Evans rats (150-200 g) was homogenized in 30 volumes of ice-cold 0.05 M Tris-HCl buffer pH 7.7 using a Brinkman Polytron PT-10, (setting number 6 for 20 seconds) and centrifuged for ten minutes at 20,000×g (Sorvall RC-2), 4° C. The supernatant was discarded, and the pellet was resuspended and centrifuged as before. The pellet was resuspended in 20 ml Tris-HCl buffer containing two International Units/ml of adenosine deaminase (Sigma type III from calf intestinal mucosa), incubated at 37° C. for 30 minutes, then subsequently at 0° C. for ten minutes. The homogenate was again centrifuged, and the final pellet was resuspended in ice-cold 0.05 M Tris-HCl buffer pH 7.7 to a concentration of 20 mg/ml original wet tissue weight and used immediately.
Tissue homogenate (10 mg/ml) was incubated in 0.05 M Tris-HCl buffer pH 7.7 containing 1.0 nM [^3 H]-N^6 -cyclohexyladenosine (^3 H]-CHA) with or without test agents in triplicate for one hour at 25° C. Incubation volume was 2 ml. Unbound [^3 H]-CHA was separated by rapid filtration under reduced pressure through Whatman glass fiber (GF/B) filters. The filters were rinsed three times with 5 ml of ice cold 0.05 M Tris-HCl buffer pH 7.7. The radio-labeled ligand retained on the filter was measured by liquid scintillation spectrophotometry after shaking the filters for one hour or longer on a mechanical shaker in 10 ml of Beckman Ready-Solv HP scintillation cocktail.
Nonspecific binding was defined as the binding which occurred in the presence of 1 mM theophylline. The concentration of test agent which inhibited 50% of the specific binding (IC50) was determined by nonlinear computer curve fit. The Scatchard plot was calculated by linear regression of the line obtained by plotting the amount of radioligand bound [formula] Since the amount of radioligand bound was a small fraction of the total amount added, free radioligand was defined as the concentration (nM) of radioligand added to the incubation mixture. The Hill coefficient was calculated by linear regression of the line obtained by plotting the log of the bound radioligand vs the log of the [formula] The maximal number of binding sites (Bmax) was calculated from the Scatchard plot.

[3] = Mouse Activity and Screen Test Procedure (MAST): screen test (mice falling off inverted screen); type: in vivo, mouse (Swiss-Webster, male); settings: IP
From the text: as §1, §2, §3, §4, §5, §6

[4] = Mouse Activity and Screen Test Procedure (MAST): inhibition of spontaneous locomotion (actophotometer) and overall dose rating; type: in vivo, mouse (Swiss-Webster, male); settings: PO
adenosine A2 receptor = target: T2, adenosine A2 receptor (Rattus norvegicus, UniProt P30543); assay: Adenosine Receptor Binding--A2 Receptor Affinity (RBA2), [3H]NECA displacement, rat striatal membranes; design: species or system rat (Sprague-Dawley); settings: 4 nM [3H]NECA, 50 nM N6-cyclopentyladenosine, rat striatum, 25° C., read-out: RBA-2
T2 construct: Brains were thawed and then kept on ice while the striata were dissected out; tissue Pel-Freez (Rogers, Ark.); host or cells: rat striatum, membranes (mixed sex Sprague-Dawley)
Protocol: Brains from 200-500 g mixed sex Sprague-Dawley rats were purchased from Pel-Freez (Rogers, Ark.). Fresh brains from male Long-Evans hooded rats (Blue Spruce Farms, Altamont, N.Y.) gave essentially identical results. Brains were thawed and then kept on ice while the striata were dissected out. Striata were disrupted in 10 vol of ice-cold 50 mM Tris.HCl (pH 7.7 at 25° C., pH 8.26 at 5° C.) (Tris) for 30 seconds in a Polytron PT-10 (Brinkmann) at setting 5. The suspension was centrifuged at 50,000 xg for ten minutes, the supernatant discarded, the pellet resuspended in 10 vol ice-cold Tris as above, recentrifuged, resuspended at 1 g/5 ml, and stored in plastic vials at -70° C. (stable for at least six months). When needed, tissue was thawed at room temperature, disrupted in a Polytron, and kept on ice until used.
All incubations were for 60 minutes at 25° C. in 12×75 mm glass tubes containing 1 ml Tris with 5 mg original tissue weight of rat weight of rat striatal membranes, 4 nM [^3 H]-N-ethyl adenosine-5'-carboxamide ([^3 H]NECA), 50 nM N^6 -cyclopentyladenosine (to eliminate A1 receptor binding), 10 mM MgCl2, 0.1 units/ml of adenosine deaminase and 1% dimethylsulfoxide. N^6 -Cyclopentyladenosine was dissolved at 10 mM in 0.02N HCl and diluted in Tris. Stock solutions and dilutions of N^6 -cyclopentyladenosine could be stored at -20° C. for several months. Test compounds were dissolved at 10 mM in dimethylsulfoxide on the same day as the experiment, and diluted in dimethylsulfoxide to 100× the final incubation concentration. Control incubations received an equal volume (10 μl) of dimethylsulfoxide; the resulting concentration of dimethylsulfoxide had no effect on binding. [^3 H]NECA was diluted to 40 nM in Tris. The membrane suspension (5 mg/0.79 ml) contained sufficient MgCl2 and adenosine deaminase to give 10 mM and 0.1 units/ml, respectively, final concentration in the incubation. […]
Incubations were terminated by filtration through 2.4 cm GF/B filters under reduced pressure. […] Filters were put in scintillation vials, 8 ml of Formula 947 scintillation fluid added, and the vials left overnight, shaken, and counted in a liquid scintillation counter at 40% efficiency.
Nonspecific binding was defined as binding in the presence of 100 μM N^6 -cyclopentyladenosine, and specific binding was defined as total binding minus nonspecific binding. The IC50 was calculated by weighted nonlinear least squares curve-fitting to the mass-action equation. […]
Weighting factors were calculated under the assumption that the standard deviation was proportional to the predicted value of Y. Nonspecific binding was treated as a very large (infinite) concentration of drug in the computer analysis.

T2 sequence (P30543 whole entry): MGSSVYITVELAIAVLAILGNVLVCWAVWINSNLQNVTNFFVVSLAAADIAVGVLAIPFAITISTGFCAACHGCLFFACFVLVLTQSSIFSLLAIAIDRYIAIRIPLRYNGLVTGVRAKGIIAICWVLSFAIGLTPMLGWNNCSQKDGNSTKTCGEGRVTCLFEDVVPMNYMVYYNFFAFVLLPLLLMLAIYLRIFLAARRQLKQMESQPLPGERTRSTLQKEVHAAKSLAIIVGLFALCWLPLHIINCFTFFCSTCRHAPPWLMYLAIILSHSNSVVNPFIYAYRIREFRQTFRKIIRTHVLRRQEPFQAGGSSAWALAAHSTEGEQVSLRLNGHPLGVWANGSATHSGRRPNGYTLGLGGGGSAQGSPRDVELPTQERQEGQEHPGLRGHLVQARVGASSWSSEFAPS

| SMILES | Inhibition of Mouse Locomotion Activity ([1]; 3 mg/kg) | Inhibition of Mouse Locomotion Activity ([1]; 10 mg/kg) | Inhibition of Mouse Locomotion Activity ([1]; 30 mg/kg) | Screen Test Failure ([2]; 3 mg/kg) | Screen Test Failure ([2]; 10 mg/kg) | Screen Test Failure ([2]; 30 mg/kg) | pIC50 (adenosine A1 receptor) | Screen Test Failure ([3]; 3 mg/kg) | Screen Test Failure ([3]; 10 mg/kg) | Screen Test Failure ([3]; 30 mg/kg) | Inhibition of Mouse Locomotion Activity ([4]; 3 mg/kg) | Inhibition of Mouse Locomotion Activity ([4]; 10 mg/kg) | Inhibition of Mouse Locomotion Activity ([4]; 30 mg/kg) | pIC50 (adenosine A2 receptor) |
| --- | --- | --- | --- | --- | --- | --- | --- | --- | --- | --- | --- | --- | --- | --- |
| COc1ccc2c(CCNc3ncnc4c3ncn4[C@@H]3O[C@H](CO)[C@@H](O)[C@H]3O)csc2c1 [Example 1, N-[2-(6-methoxybenzo[b]thien-3-yl)ethyl]adenosine] | 23% | 48% | 92% | 17% | 0% | 44% | 8.11 | 0% | 11% | 11% | 12% | 42% | 84% | 6.46 |
| OC[C@H]1O[C@@H](n2cnc3c(NCCc4csc5ccccc45)ncnc32)[C@H](O)[C@@H]1O [Example 2, N-[2-(benzo[b]thien-3-yl)ethyl]adenosine] | 21% | 30% | 63% |  |  |  | 7.92 | 0% | 11% | 0% |  |  |  | 6.52 |
| OC[C@H]1O[C@@H](n2cnc3c(NCCc4csc5ccc(Cl)cc45)ncnc32)[C@H](O)[C@@H]1O [Example 3, N-[2-(5-chlorobenzo[b]thien-3-yl)ethyl]adenosine] | 27% | 54% | 86% |  |  |  | 8.35 | 0% | 0% | 0% |  |  |  | 6.26 |
| Cc1ccc2scc(CCNc3ncnc4c3ncn4[C@@H]3O[C@H](CO)[C@@H](O)[C@H]3O)c2c1 [Example 4, N-[2-(5-methylbenzo[b]thien-3-yl)ethyl]adenosine] | 48% | 63% | 89% |  |  |  | 8.37 | 0% | 0% | 0% |  |  |  | 6.38 |

— patent US4764506A, “N^6 -(benzothien-3-yl)ethyl adenosine; N^6 -(benzothien-3-yl)ethyl adenosine, S-oxide; and N^6 -(benzothien-3-yl)ethyl S,S-dioxide adenosine” (Warner-Lambert Company, priority 1986, dated 1988)
